Test results from paper PMC3274548, “Toward New Therapeutics for Skin and Soft Tissue Infections: Propargyl-Linked Antifolates Are Potent Inhibitors of MRSA and Streptococcus pyogenes” (PLoS ONE, 2012).
Values after ≈ are worked out from the molar mass of the structure shown. Read-outs that look alike come from different tables or passages of the source.

How the values were obtained:
MRSA (S.aureus 13709) = assay: MIC, broth microdilution with Alamar Blue; type: cell-based, Staphylococcus aureus; settings: for Selectivity MRSA: IC50 (MCF10)/MIC (pathogen), both values in µM; for MIC: Staphylococcus aureus, MRSA
Description: (§1) Stock solutions of standard antibiotics and test compounds were made at 50 mM in DMSO. […] For susceptibility testing, 10 µL of glycerol stock was suspended in a 10 mL shake flask culture of chemically defined Isosensitest broth (Oxoid) supplemented with 2% w/v glucose. A sample of the shake flask culture was diluted to 1×10^6 cells/mL in media and added to 96-well test plates (100 µL per well) containing test compounds dispensed in DMSO (2 µL) using serial two-fold dilutions. After an incubation period (30°C) determined from the strain specific doubling time, a 0.03% w/v aqueous solution of resazurin (10 µL) was added and the plates were allowed to incubate; each well was then scored for dye reduction.

Human DHFR = biological target: T1, Human DHFR (Homo sapiens, UniProt P00374); assay: DHFR enzyme inhibition assay (NADPH oxidation, 340 nm); type: biochemical; settings: human DHFR; average of at least three measurements; read-out: IC50 (nM) Human
T1 sequence (P00374 1-187): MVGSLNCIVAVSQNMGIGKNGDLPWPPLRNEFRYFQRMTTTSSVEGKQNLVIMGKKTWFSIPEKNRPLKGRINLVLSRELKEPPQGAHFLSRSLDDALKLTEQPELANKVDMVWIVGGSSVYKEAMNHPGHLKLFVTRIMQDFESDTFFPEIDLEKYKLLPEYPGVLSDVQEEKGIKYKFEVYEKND
Description: (§2) Enzyme inhibition assays were performed by monitoring the rate of NADPH oxidation by the DHFR enzyme at an absorbance of 340 nm over five minutes. Assays were performed in the presence of saturating concentrations of NADPH (100 µM) and initiated with dihydrofolate (1 mM). All assays were completed at 25°C in a buffer containing 20 mM TES pH 7.0, 50 mM KCl, 10 mM 2-mercaptoethanol, 0.5 mM EDTA and 1 mg/mL BSA. Inhibition was measured at least three times with inhibitor concentrations near the IC50 value and the average IC50 value is reported with a standard deviation.

[1] = test system: TMP-SMZ-resistant MRSA strain; assay: MIC against clinical isolates of MRSA; type: cell-based; settings: Staphylococcus aureus, clinical isolate, Table 4, read-out: MIC TMP-SMZ^R
MCF-10 cells = assay: Mammalian cell toxicity (Alamar Blue); type: cell-based; settings: Homo sapiens, MCF10; cytotoxicity, 4 h incubation; read-out: IC50 MCF-10
Description: Adherent cell lines were maintained in Eagle's Minimal Essential Media (Sigma-Aldrich, St. Louis, MO, USA) with 2 mM glutamine and Earle's Balanced Salt Solution (HyClone, Logan, UT, USA) adjusted to contain 1.5 g/L sodium bicarbonate, 0.1 mM non-essential amino acids, 1 mM sodium pyruvate and 10% fetal calf serum. Fetal calf serum used in these assays was lot matched throughout. […] Toxicity assays were conducted between passages 10–20. Target compound toxicity was measured by incubating the test compound with the cells for 4 h, washing the cells and finally treating the cells with Alamar Blue. After 12–24 h, the fluorescence of the reduced dye was measured. Fluorescence intensity as a function of test compound concentration was fit to the Fermi equation, using non-linear least squares regression analysis, to estimate IC50 values.

Streptococcus pyogenes = assay: MIC, broth microdilution with Alamar Blue; type: cell-based; settings: for Selectivity S. pyogenes: IC50 (MCF10)/MIC (pathogen), both values in µM; for MIC: Streptococcus pyogenes
Description: as §1

HA-MRSA = assay: MIC against clinical isolates of MRSA; type: cell-based; settings: Staphylococcus aureus, clinical isolate, read-out: MIC HA-MRSA
S. pyogenes DHFR = S. pyogenes DHFR (Streptococcus pyogenes, UniProt Q9A091); assay: biochemical; type: biochemical; settings: IC50 (human)/IC50 (pathogen)
S. pyogenes DHFR, sequence (Q9A091 entry or part of it): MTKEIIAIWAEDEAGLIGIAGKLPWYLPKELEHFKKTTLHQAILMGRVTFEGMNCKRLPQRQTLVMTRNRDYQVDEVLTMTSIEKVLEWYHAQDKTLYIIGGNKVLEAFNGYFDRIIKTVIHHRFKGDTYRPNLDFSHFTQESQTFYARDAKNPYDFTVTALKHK
Description: (§3) S. aureus DHFR was cloned, expressed and purified as previously described. Briefly, the DHFR gene was inserted into vector pET41 with a His8 tag for purification. The protein was expressed in E. coli BL21 (DE3) cells. […] The protein was concentrated to ∼5 mg/mL. S. pyogenes DHFR was cloned using PCR from genomic DNA and inserted in vector pET-41.
as §2

S. aureus DHFR = biological target: T2, S. aureus DHFR (Staphylococcus aureus, UniProt P0A017); assay: biochemical; type: biochemical; settings: for Selectivity (h/Sa): IC50 (human)/IC50 (pathogen); for IC50: S. aureus DHFR, average of at least three measurements, read-out: IC50 (nM) Sa
T2 construct: the DHFR gene was inserted into vector pET41 with a His8 tag for purification; His8; made in house; host or cells: E. coli BL21 (DE3)
T2 sequence (P0A017 whole entry): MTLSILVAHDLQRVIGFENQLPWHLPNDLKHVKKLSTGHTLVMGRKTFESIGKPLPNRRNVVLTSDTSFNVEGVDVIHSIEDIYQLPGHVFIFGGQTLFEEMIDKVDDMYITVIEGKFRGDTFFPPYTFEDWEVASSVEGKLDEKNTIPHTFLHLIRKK
Description: as §3, §2

USA300 CA-MRSA = assay: MIC against clinical isolates of MRSA; type: cell-based, Staphylococcus aureus; settings: Staphylococcus aureus, clinical isolate, read-out: MIC USA300 CA-MRSA
VISA Mu50 = assay: MIC against clinical isolates of MRSA; type: cell-based; settings: Staphylococcus aureus, read-out: MIC VISA Mu50
HepG2 cells = assay: Mammalian cell toxicity (Alamar Blue); type: cell-based; settings: Homo sapiens, cytotoxicity, 4 h incubation
Description: Fetal calf serum used in these assays was lot matched throughout. All cultures were maintained under a humidified 5% CO2 atmosphere at 37°C, had media refreshed twice weekly and were subcultured by trypsinization and resuspension at a ratio of 1∶5 each week. Toxicity assays were conducted between passages 10–20. Target compound toxicity was measured by incubating the test compound with the cells for 4 h, washing the cells and finally treating the cells with Alamar Blue. After 12–24 h, the fluorescence of the reduced dye was measured. Fluorescence intensity as a function of test compound concentration was fit to the Fermi equation, using non-linear least squares regression analysis, to estimate IC50 values.

hVISA Mu3 = assay: MIC against clinical isolates of MRSA; type: cell-based; settings: Staphylococcus aureus; heteroresistant vancomycin intermediate S. aureus; read-out: MIC hVISA Mu3
USA100 HA-MRSA = assay: MIC against clinical isolates of MRSA; type: cell-based; settings: Staphylococcus aureus, clinical isolate, read-out: MIC USA100 HA-MRSA
[2] = test system: MRSA strain containing the F98Y mutation; settings: cited from earlier work
[3] = 10% fetal calf serum, value in parentheses, read-out: MIC MRSA +FCS
[4] = value in parentheses, read-out: MIC MRSA
[5] = 10% FCS, read-out: MIC S. pyogenes +FCS
[6] = 10% FCS, value in parentheses, read-out: MIC S. pyogenes +FCS
[7] = value in parentheses, read-out: MIC S. pyogenes

SMILES	Selectivity MRSA (MRSA (S.aureus 13709))	MIC (MRSA (S.aureus 13709); [3]) [µM]	MIC (MRSA (S.aureus 13709); [4]) [µM]	MIC (MRSA (S.aureus 13709); read-out: MIC MRSA) [µg/mL]	IC50 (Human DHFR) [nM]	MIC [1] [µg/mL]	IC50 (MCF-10 cells) [nM]	Selectivity S. pyogenes (Streptococcus pyogenes)	MIC (Streptococcus pyogenes; [5]) [µg/mL]	MIC (Streptococcus pyogenes; [6]) [µM]	MIC (Streptococcus pyogenes; [7]) [µM]	MIC (Streptococcus pyogenes; read-out: MIC S. pyogenes) [µg/mL]	MIC (HA-MRSA) [µg/mL]	Selectivity (h/Sp) (S. pyogenes DHFR)	Selectivity (h/Sa) (S. aureus DHFR)	IC50 (S. aureus DHFR) [nM]	MIC (USA300 CA-MRSA; USA300) [µg/mL]	MIC (USA300 CA-MRSA) [µg/mL]	MIC (VISA Mu50) [µg/mL]	IC50 (HepG2 cells) [nM]	further results
CCc1nc(N)nc(N)c1C#CCc1cc(-c2ccncc2)ccc1OC [Compound 26]	3,391	0.25	0.064	0.02	330 ± 12	0.04 (≈ 0.111 µM)	217000	1,736	0.09	0.25	0.125	0.04	0.08 (≈ 0.223 µM)	17	16	21 ± 1	0.08 (≈ 0.223 µM)	0.08 (≈ 0.223 µM)	0.04 (≈ 0.111 µM)	199000	MIC (MRSA (S.aureus 13709); 10% fetal calf serum, read-out: MIC MRSA +FCS): 0.09 µg/mL; MIC (hVISA Mu3): 0.04 µg/mL (≈ 0.111 µM); MIC (USA100 HA-MRSA; USA100): 0.08 µg/mL (≈ 0.223 µM); MIC (USA100 HA-MRSA; first USA100 column): 5.3 µg/mL (≈ 14.7 µM); MIC (USA100 HA-MRSA; third USA100 column): 0.04 µg/mL (≈ 0.111 µM)
CCc1nc(N)nc(N)c1C#CCc1cccc(-c2cccnc2)c1 [Compound 36]	>4,000		0.125	0.041	290 ± 15	0.045 (≈ 0.137 µM)	> 500000	>2,000			0.25	0.08	0.36 (≈ 1.09 µM)	6	9	33 ± 0.5	0.36 (≈ 1.09 µM)	0.02 (≈ 0.0607 µM)	0.72 (≈ 2.19 µM)	> 500000	MIC (hVISA Mu3): 0.36 µg/mL (≈ 1.09 µM); MIC (USA100 HA-MRSA; USA100): 0.36 µg/mL (≈ 1.09 µM); MIC (USA100 HA-MRSA; first USA100 column): 5.76 µg/mL (≈ 17.5 µM); MIC (USA100 HA-MRSA; third USA100 column): 0.09 µg/mL (≈ 0.273 µM)
COc1cc(Cc2cnc(N)nc2N)cc(OC)c1OC [TMP, trimethoprim, reference compound]		0.5	0.5						0.58	2	2	0.58									MIC MRSA (MRSA (S.aureus 13709)): 0.14 µg/mL (≈ 0.482 µM); MIC MRSA +FCS (MRSA (S.aureus 13709); 10% fetal calf serum): 0.14 µg/mL (≈ 0.482 µM); MIC against the F98Y strain [2]: 16 µg/mL (≈ 55.1 µM)
